The term inhibition denotes the percentage by which the read-out fell short of the control.

The target of the assay is T1, human Nav1.7 channels (Homo sapiens, UniProt Q15858).
T1 construct: host or cells: HEK293
T1 sequence (Q15858 whole entry): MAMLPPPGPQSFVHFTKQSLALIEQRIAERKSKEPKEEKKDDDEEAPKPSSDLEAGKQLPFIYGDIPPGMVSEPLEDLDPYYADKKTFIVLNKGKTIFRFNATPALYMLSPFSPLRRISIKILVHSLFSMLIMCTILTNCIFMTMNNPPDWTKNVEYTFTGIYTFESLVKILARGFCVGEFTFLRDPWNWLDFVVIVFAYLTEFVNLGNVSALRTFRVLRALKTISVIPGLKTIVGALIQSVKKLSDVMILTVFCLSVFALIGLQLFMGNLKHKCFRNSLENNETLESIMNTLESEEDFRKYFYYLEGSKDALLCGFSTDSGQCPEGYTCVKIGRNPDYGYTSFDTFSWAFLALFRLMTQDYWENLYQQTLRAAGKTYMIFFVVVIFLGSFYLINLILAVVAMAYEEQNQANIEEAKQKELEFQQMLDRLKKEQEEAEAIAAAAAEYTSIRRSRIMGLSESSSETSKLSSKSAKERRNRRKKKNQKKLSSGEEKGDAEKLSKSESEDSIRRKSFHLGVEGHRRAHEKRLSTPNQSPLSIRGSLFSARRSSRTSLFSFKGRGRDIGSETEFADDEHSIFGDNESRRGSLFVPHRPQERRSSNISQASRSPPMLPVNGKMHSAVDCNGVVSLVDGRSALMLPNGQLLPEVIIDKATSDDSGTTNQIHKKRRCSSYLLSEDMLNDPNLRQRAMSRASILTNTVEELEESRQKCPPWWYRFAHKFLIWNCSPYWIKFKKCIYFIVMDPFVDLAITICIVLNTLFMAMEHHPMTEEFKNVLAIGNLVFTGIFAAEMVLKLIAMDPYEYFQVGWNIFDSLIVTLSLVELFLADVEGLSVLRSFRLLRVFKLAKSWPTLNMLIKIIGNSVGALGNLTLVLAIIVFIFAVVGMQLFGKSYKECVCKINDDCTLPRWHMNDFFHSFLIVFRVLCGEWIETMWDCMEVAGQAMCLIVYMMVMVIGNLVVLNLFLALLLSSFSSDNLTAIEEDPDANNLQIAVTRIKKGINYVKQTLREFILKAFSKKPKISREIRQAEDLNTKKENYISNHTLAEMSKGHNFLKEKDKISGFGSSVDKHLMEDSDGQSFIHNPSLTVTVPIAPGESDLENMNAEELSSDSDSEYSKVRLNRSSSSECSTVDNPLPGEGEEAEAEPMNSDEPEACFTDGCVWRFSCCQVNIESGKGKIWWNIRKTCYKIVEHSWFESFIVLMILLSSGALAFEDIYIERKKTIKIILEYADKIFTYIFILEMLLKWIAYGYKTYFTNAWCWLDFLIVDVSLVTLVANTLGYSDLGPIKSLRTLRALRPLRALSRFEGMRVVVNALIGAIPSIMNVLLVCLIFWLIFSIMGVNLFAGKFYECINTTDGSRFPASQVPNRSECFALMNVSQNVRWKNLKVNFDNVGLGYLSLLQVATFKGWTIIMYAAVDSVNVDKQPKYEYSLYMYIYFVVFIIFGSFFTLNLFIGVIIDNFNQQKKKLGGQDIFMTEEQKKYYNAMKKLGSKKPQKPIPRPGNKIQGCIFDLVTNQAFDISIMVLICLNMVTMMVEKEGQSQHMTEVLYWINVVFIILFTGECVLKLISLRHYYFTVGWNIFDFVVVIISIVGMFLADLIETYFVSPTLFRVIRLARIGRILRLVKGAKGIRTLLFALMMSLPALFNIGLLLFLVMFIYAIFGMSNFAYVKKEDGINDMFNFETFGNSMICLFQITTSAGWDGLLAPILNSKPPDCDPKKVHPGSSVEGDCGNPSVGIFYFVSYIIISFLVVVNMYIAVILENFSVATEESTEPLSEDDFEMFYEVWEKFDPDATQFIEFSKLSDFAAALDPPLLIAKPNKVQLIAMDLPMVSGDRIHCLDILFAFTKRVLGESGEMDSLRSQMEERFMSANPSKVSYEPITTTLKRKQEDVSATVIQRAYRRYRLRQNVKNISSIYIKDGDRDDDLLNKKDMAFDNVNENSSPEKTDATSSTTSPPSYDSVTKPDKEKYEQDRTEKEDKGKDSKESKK
The assay is described as follows: hNav1.7 channel assay, whole cell patch clamp, two-pulse protocol. The format is cell-based. Particulars: TP2 (inactivated phase inhibition), HEK293 cells stably expressing human Nav1.7, read-out: Inhibition activity: percent inhibition on the inactivated state of hNav1.7. An excerpt:
Whole cell patch clamp technique was used to investigate the inhibitory effects of the compound of Examples on human Nav1.7 channels, stably expressed in HEK293 cells. Human Nav1.7 recombinant cell line (CYL3011-precisION) was purchased from Eurofins.
Two-pulse protocol was used every 10 seconds to assess the state-dependent inhibition by Examples. From the holding potential of −90 mV, pre-pulse (200 ms at −120 mV) was followed by test pulse1 ([…]), then test pulse2 (TP2: 20 ms at 0 mV) was evoked after inter-pulse (20 ms at −100 mV).
Peak current amplitudes were measured for test pulses TP1 (resting phase inhibition) and TP2 (inactivated phase inhibition). The following solutions were used for screening assay: External (mM): 145 NaCl, 1 MgCl2, 1.8 CaCl2, 10 Hepes, 5 Glucose, pH 7.4, 300 mOsm; Internal (mM): 120 CsF, 10 NaCl, 10 EGTA, 10 HEPES, pH 7.2, 290 mOsm.
The inhibition on the inactivated state of hNav1.7 was calculated as: % inhibition (inactivation state)=(1−(ITP2, TA/ITP2, Control)×100%, where ITP2 (the inward peak Na+ currents), Control and ITP2, TA were elicited by the TP2 in control (vehicle only) and in the presence of a test article (TA) indicating Examples, respectively.
On the technique in general: Patch clamp records ionic current or voltage across a cell membrane.
Regarding `O=C(NCc1cccc[n+]1[O-])c1cccc(-c2ccc(C(F)(F)F)cc2)c1` [Example 1, N-[(1-oxidopyridin-1-ium-2-yl)methyl]-3-[4-(trifluoromethyl)phenyl]benzamide], the inhibition at 10 µM was in the range of 70 to 100%. For `O=C(NCc1cccc[n+]1[O-])c1cccc(-c2cccc(Cl)c2)c1` [Example 4, 3-(3-chlorophenyl)-N-[(1-oxidopyridin-1-ium-2-yl)methyl]benzamide], the inhibition at 10 µM was 40 to 70%.

As for `O=C(NCc1cccc[n+]1[O-])c1cccc(-c2cccc(C(F)(F)F)c2)c1` [Example 5, N-[(1-oxidopyridin-1-ium-2-yl)methyl]-3-[3-(trifluoromethyl)phenyl]benzamide], the inhibition at 10 µM is 40 to 70%. On to `O=C(NCc1cccc[n+]1[O-])c1cccc(-c2ccc(Cl)c(Cl)c2)c1` [Example 6, 3-(3,4-dichlorophenyl)-N-[(1-oxidopyridin-1-ium-2-yl)methyl]benzamide], for which the inhibition at 10 µM fell in the range of 70 to 100%.

As for `O=C(NCc1cccc[n+]1[O-])c1cccc(-c2cc(Cl)cc(Cl)c2)c1` [Example 7, 3-(3,5-dichlorophenyl)-N-[(1-oxidopyridin-1-ium-2-yl)methyl]benzamide], the inhibition at 10 µM is 40 to 70%.

Regarding `O=C(NCc1cccc[n+]1[O-])c1cccc(-c2cccc(OC(F)(F)F)c2)c1` [Example 8, N-[(1-oxidopyridin-1-ium-2-yl)methyl]-3-[3-(trifluoromethoxy)phenyl]benzamide], the inhibition at 10 µM lay within 40 to 70%. For the molecule `O=C(NCc1cccc[n+]1[O-])c1cccc(-c2ccc(Cl)cc2Cl)c1` [Example 9, 3-(2,4-dichlorophenyl)-N-[(1-oxidopyridin-1-ium-2-yl)methyl]benzamide], the inhibition at 10 µM lay in the range of 70 to 100%.

Regarding `O=C(NCc1cccc[n+]1[O-])c1cccc(-c2cc(Cl)ccc2Cl)c1` [Example 10, 3-(2,5-dichlorophenyl)-N-[(1-oxidopyridin-1-ium-2-yl)methyl]benzamide], the inhibition at 10 µM was in the range of 40 to 70%. In the case of `O=C(NCc1cccc[n+]1[O-])c1cccc(-c2ccc(C(F)(F)F)cc2C(F)(F)F)c1` [Example 11, 3-[2,4-bis(trifluoromethyl)phenyl]-N-[(1-oxidopyridin-1-ium-2-yl)methyl]benzamide], the inhibition at 10 µM was 70 to 100%.

In the case of `O=C(NCc1cccc[n+]1[O-])c1cccc(-c2ccccc2)c1` [Example 12, N-[(1-oxidopyridin-1-ium-2-yl)methyl]-3-phenyl-benzamide], the inhibition at 10 µM is 40 to 70%. Regarding `CC(C)(C)c1ccc(-c2cccc(C(=O)NCc3cccc[n+]3[O-])c2)cc1` [Example 13, 3-(4-tert-butylphenyl)-N-[(1-oxidopyridin-1-ium-2-yl)methyl]benzamide], the inhibition at 10 µM is 40 to 70%. Consider `Cc1cc(Cl)ccc1-c1cccc(C(=O)NCc2cccc[n+]2[O-])c1` [Example 15, 3-(4-chloro-2-methyl-phenyl)-N-[(1-oxidopyridin-1-ium-2-yl)methyl]benzamide], for which the inhibition at 10 µM lay in the range of 40 to 70%. Then `O=C(NCc1cccc[n+]1[O-])c1cccc(-c2ccc(C(F)(F)F)cc2F)c1` [Example 16, 3-[2-fluoro-4-(trifluoromethyl)phenyl]-N-[(1-oxidopyridin-1-ium-2-yl)methyl]benzamide], with 40 to 70%; and `O=C(NCc1cccc[n+]1[O-])c1cccc(-c2ccc(F)c(Cl)c2)c1` [Example 17, 3-(3-chloro-4-fluoro-phenyl)-N-[(1-oxidopyridin-1-ium-2-yl)methyl]benzamide], with 40 to 70%. For the molecule `O=C(NCc1cccc[n+]1[O-])c1cccc(-c2ccc(F)cc2)c1` [Example 18, 3-(4-fluorophenyl)-N-[(1-oxidopyridin-1-ium-2-yl)methyl]benzamide], the inhibition at 10 µM was in the range of 40 to 70%. On to `O=C(NCc1cccc[n+]1[O-])c1cccc(-c2ccccc2Cl)c1` [Example 20, 3-(2-chlorophenyl)-N-[(1-oxidopyridin-1-ium-2-yl)methyl]benzamide], for which the inhibition at 10 µM fell in the range of 40 to 70%.
